According to patent US7951538B2, “Method to determine the risk for side effects of an SSRI treatment in a person” (The Board of Trustees of the Leland Stanford Junior …, priority 2001, dated 2011):

Key:
[1] = tested on: patients with major depression; experiment: Improvement in mood on the Hamilton Depression Rating Scale over the 8 week treatment period; type: in vivo, human; conditions: not affected by the 102 T/C polymorphism
Protocol: (§1) All subjects were 65 years of age or older and had been free of 10 major medical problems for at least 3 months. […] Patients were excluded for clinically significant laboratory abnormalities, drug or alcohol abuse, psychosis, recent suicide attempt, and psychiatric conditions other than major depression, or treatment with antidepressant medications within 7 days of commencing the study.
On day 14, doses were increased to 30 mg once daily. […] All patients Were genotype for the 102 T/C polymorphism using the method described above.

[2] = tested on: patients with major depression; conditions: human, in vivo
Description: as §1
Genomic DNA was extracted from EDTA-treated whole blood using the Puregene DNA extraction kit (Gentra Systems). Genotype for the 102 T/C DNA sequence polymorphism in the 5-HT2A receptor gene was determined using the method of Du et al. (Am J Med Genet. 2000 Feb. 7;96(1):56-60). […]
Discontinuations were classified as due to any event, and as due to an adverse event. […] Body weight was determined at baseline and at each subsequent visit. Actual medication taken Was determined by counting the number of tablets remaining at each clinic visit. Dosing compliance was determined by as total number of medication doses taken divided by total number of capsules given. […]

`CN1CCN2c3ncccc3Cc3ccccc3C2C1` (stereo not drawn) [mirtazapine] was tested, and the “improvement in mood (decreased depression), Hamilton Depression Rating Scale” value [1] was “statistically significant improvement”, the “probability of discontinuing treatment due to side effects” value [2] was “no greater probability” and the “severity of side effects” value [2] was “no greater severity”.
